System: 349418-098-R-PDC spheroids, viability, % test/control
Experiment: Anticancer human tumor 349418-098-R-PDC patient-derived lung adenocarcinoma cell line growth inhibition [IpAb]
Conditions: spheroids with HUVEC and MSC; for IC50: curve of first compound; for viability, T/C: stronger effect = lower value
Summary of the method: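 Combinations with ipatasertib or abemaciclib were tested on tumour spheroids holding HUVEC (25%) and MSC (15%) alongside 60% malignant cells. Top concentration was at or near clinical Cmax (10 microM if undefined), descending in half-log steps.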

[1] = second compound 0.1 µM, first compound 0.0316 µM
[2] = second compound 0.1 µM, first compound 0.1 µM
[3] = second compound 0.1 µM, first compound 0.316 µM
[4] = second compound 0.1 µM, first compound 1 µM
[5] = second compound 0.316 µM, first compound 0.0316 µM
[6] = second compound 0.316 µM, first compound 0.1 µM
[7] = second compound 0.316 µM, first compound 0.316 µM
[8] = second compound 0.316 µM, first compound 1 µM
[9] = second compound 1 µM, first compound 0.0316 µM
[10] = second compound 1 µM, first compound 0.1 µM
[11] = second compound 1 µM, first compound 0.316 µM
[12] = second compound 1 µM, first compound 1 µM
[13] = second compound 3.16 µM, first compound 0.0316 µM
[14] = second compound 3.16 µM, first compound 0.1 µM
[15] = second compound 3.16 µM, first compound 0.316 µM
[16] = second compound 3.16 µM, first compound 1 µM
[17] = second compound 10 µM, first compound 0.0316 µM
[18] = second compound 10 µM, first compound 0.1 µM
[19] = second compound 10 µM, first compound 0.316 µM
[20] = second compound 10 µM, first compound 1 µM
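Also: spheroids exposed to compounds for 7 days.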

Compound	IC50 (second compound 0.1 µM) [nM]	IC50 (second compound 0.316 µM) [nM]	IC50 (second compound 1 µM) [nM]	IC50 (second compound 3.16 µM) [nM]	IC50 (second compound 10 µM) [nM]	viability, T/C [1] [%]	viability, T/C [2] [%]	viability, T/C [3] [%]	viability, T/C [4] [%]	viability, T/C [5] [%]	viability, T/C [6] [%]	viability, T/C [7] [%]	viability, T/C [8] [%]	viability, T/C [9] [%]	viability, T/C [10] [%]	viability, T/C [11] [%]	viability, T/C [12] [%]	viability, T/C [13] [%]	viability, T/C [14] [%]	viability, T/C [15] [%]	other results
CC1(C)CCC(CN2CCN(c3ccc(C(=O)NS(=O)(=O)c4ccc(NCC5CCOCC5)c([N+](=O)[O-])c4)c(Oc4cnc5[nH]ccc5c4)c3)CC2)=C(c2ccc(Cl)cc2)C1 + CC(C)NCC(C(=O)N1CCN(c2ncnc3c2C(C)CC3O)CC1)c1ccc(Cl)cc1	3820	326	< 31.6	< 31.6	< 31.6	99.2	96.5	97.8	78	64.7	49.4	50.6	40.1	30	29.5	27.3	20.4	13.3	13	11.5	viability, T/C (second compound 0.1 µM, first compound 3.16 µM): 60.6%; viability, T/C (second compound 0.1 µM, first compound 10 µM): 7.06%; viability, T/C (second compound 0.316 µM, first compound 3.16 µM): 31.4%; viability, T/C (second compound 0.316 µM, first compound 10 µM): 5.53%; viability, T/C (second compound 1 µM, first compound 3.16 µM): 16%; viability, T/C (second compound 1 µM, first compound 10 µM): 4.15%; viability, T/C [16]: 12.3%; viability, T/C (second compound 3.16 µM, first compound 3.16 µM): 8.4%; viability, T/C (second compound 3.16 µM, first compound 10 µM): 3.13%; viability, T/C [17]: 8.33%; viability, T/C [18]: 8.41%; viability, T/C [19]: 8.13%; viability, T/C [20]: 7.39%; viability, T/C (second compound 10 µM, first compound 3.16 µM): 5.52%; viability, T/C (second compound 10 µM, first compound 10 µM): 2.19%
COc1c(OCCCN2CCOCC2)ccc2c3n(c(=NC(=O)c4cnc(N)nc4)nc12)CCN3 + CC(C)NCC(C(=O)N1CCN(c2ncnc3c2C(C)CC3O)CC1)c1ccc(Cl)cc1	3.97	< 3.16	< 3.16	< 3.16	< 3.16	9.62	5.79	5.45	5.99	8.11	6.04	5.28	5.13	7.4	5.13	5.24	4.6	6.17	4.91	4.85	viability, T/C (second compound 0.1 µM, first compound 0.00316 µM): 55.1%; viability, T/C (second compound 0.1 µM, first compound 0.01 µM): 29.2%; viability, T/C (second compound 0.316 µM, first compound 0.00316 µM): 35%; viability, T/C (second compound 0.316 µM, first compound 0.01 µM): 21.2%; viability, T/C (second compound 1 µM, first compound 0.00316 µM): 16.6%; viability, T/C (second compound 1 µM, first compound 0.01 µM): 9.17%; viability, T/C (second compound 3.16 µM, first compound 0.00316 µM): 9.24%; viability, T/C (second compound 3.16 µM, first compound 0.01 µM): 8.35%; viability, T/C [16]: 4.78%; viability, T/C (second compound 10 µM, first compound 0.00316 µM): 6.46%; viability, T/C (second compound 10 µM, first compound 0.01 µM): 6.12%; viability, T/C [17]: 5.32%; viability, T/C [18]: 4.15%; viability, T/C [19]: 4.39%; viability, T/C [20]: 4.49%
